Measurements: ChEMBL document CHEMBL1153329, “Bioactive metabolites produced by Chaetomium globosum, an endophytic fungus isolated from Ginkgo biloba” (Bioorg Med Chem Lett, 2009)

Assays:
[1] = Toxicity against Artemia salina assessed as mortality rate at 10 ug/mL after 24 hrs by small modified microtiter-plate method; assay type: organism-based; settings: in vivo, read-out: Activity
Rhizomucor miehei = experiment: Antimicrobial activity against Mucor miehei at 10 ug/disk by agar diffusion method; assay type: functional; settings: read-out: IZ

SMILES | mortality at 24 h, 10 ug/mL [1] | zone of inhibition at 10 µg/disc (Rhizomucor miehei)
C/C1=C\[C@@H](C)C/C=C/[C@H]2[C@@H]3O[C@]3(C)[C@@H](C)[C@H]3[C@H](Cc4c[nH]c5ccccc45)NC(=O)[C@]32C(=O)/C=C/C(=O)[C@@H]1O [CHAETOGLOBOSIN A] | 83.4% | 25 mm
C/C1=C\[C@@H](C)C/C=C/[C@H]2[C@@H]3O[C@]3(C)[C@@H](C)[C@H]3[C@H](Cc4c[nH]c5ccccc45)NC(=O)[C@]32C(=O)CCC(=O)C1=O [CHAETOGLOBOSIN C] | 75.3% | 15 mm
C[C@H](/C=C/C1=CC2=C(Cl)C(=O)[C@@]3(C)O[C@]4(O)[C@H](C)[C@@H](C)OC(=O)[C@@H]4[C@H]3C2=CO1)[C@@H](C)O [CHAETOMUGILIN A] | 78.3% | –
CC[C@H](C)/C=C/C1=CC2=C(Cl)C(=O)[C@@]3(C)O[C@]4(O)[C@H](C)[C@@H](C)OC(=O)[C@@H]4[C@H]3C2=CO1 [CHAETOMUGILIN D] | 75.2% | –
